Assay results taken from BindingDB's records for doi:10.1021/jm00026a002 (Upjohn, 1995).

Biological target: T1, Dimer of Gag-Pol polyprotein [489-587] (Human immunodeficiency virus 1, UniProt P12497)
T1 construct: 489-587
Test: Protease Inhibition Assay
Details: pH 5; 22 °C
Source text: HIV-1 protease was purified and refolded from E. coli inclusion bodies. […] In the presence of HIV-l protease, the substrate is rapidly cleaved into two parts. The biotinylated amino terminal fragment binds to the avidin beads while the FITC-containing carboxy1 terminal fragment is removed through the membrane. […] The bound fluorescence is obtained by processing on an IDEXX Screen Machine. Determination of Ki values with this assay requires analysis under conditions in which substrate concentration resides substantially below Km and the inhibitor concentrations greatly exceeds the Ki value and the enzyme concentration.

O=c1oc2c(c(O)c1[C@H](c1cccc(NS(=O)(=O)c3ccccc3)c1)C1CC1)CCCCCC2 [N-{3-[(S)-cyclopropyl({4-hydroxy-2-oxo-2H,5H,6H,7H,8H,9H,10H-cycloocta[b]pyran-3-yl})methyl]phenyl}benzenesulfonamide]
Ki: 3 nM
